Reference: patent US20250145609A1, “3-SUBSTITUTED PYRIDAZINE COMPOUNDS AS SMARCA2 AND/OR SMARCA4 DEGRADERS” (Aurigene Oncology Limited, priority 2022, published 2025)

How the values were obtained:
Type in all cases: cell-based
VCaP cells = assay: Anti proliferative activity in VCaP cell line by CellTiter Glo assay; settings: Homo sapiens, VCaP, 192 h, 8 days incubation, CellTiter Glo luminescence
Experimental: Example-P1: Determination of Anti Proliferative Activity of Compounds in Cell Lines VCaP by Cell Titer Glo©(Promega) Assay
VCaP (ATCC CRL-2876) cells were seeded in 96 well plate flat black clear bottom plates (Corning, Cat. No 3904) using complete DMEM Medium. Next day, compounds listed in the present invention were added to cells from 10 mM stocks made in DMSO (Sigma Cat no. D2650). Each concentration of compound was tested in triplicate with DMSO concentration at a final percentage not exceeding 0.3 in the cells. After the incubation of VCaP cells with compound for 8 days assay was terminated using 50 μl of CellTiter Glo© reagent (Promega, Cat. no G7572). CellTiter-Glo® Luminescent reagent determines the number of viable cells based on quantitation of ATP present which is an indicator of cell number and metabolic activity. Luminescence readings were taken in Victor-3 instrument. Percent inhibition of proliferation was calculated using formula, % inhibition=100−(luminescence value of test/luminescence value of DMSO control)*100. DMSO control (0%)=Cells in complete media with DMSO; blank=Media alone containing DMSO. EC50 was calculated using graph pad prism software.
Herein the group “A” refers to EC50 values lower than l0 nM, group “B” refers to EC50 values between l0 nM-100 nM (both inclusive) and group “C” refers to EC50 values greater than 100 nM.

SMARCA2 = molecular target: T1, SMARCA2 (Homo sapiens, UniProt P51531); assay: SMARCA2 degradation in VCaP cells by Western blot; settings: at 100 nM, 16 hours
T1 construct: endogenous in cells; host or cells: VCaP (ATCC CRL-2876)
Procedure, shortened: (§1)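 VCaP cells in DMEM treated 16 h with compound at a single 100 nM dose (DMSO ≤0.3%). Lysates were probed by Western blot for SMARCA2 or SMARCA4, with beta-tubulin as loading control. Percent degradation was calculated from band signals.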

SMARCA4 = molecular target: T2, SMARCA4 (Homo sapiens, UniProt P51532); assay: SMARCA4 degradation in VCaP cells by Western blot; settings: VCaP, 16 h, at 100 nM
T2 construct: endogenous in cells; host or cells: VCaP (ATCC CRL-2876)
Procedure, shortened: as §1

T2 sequence (P51532 whole entry): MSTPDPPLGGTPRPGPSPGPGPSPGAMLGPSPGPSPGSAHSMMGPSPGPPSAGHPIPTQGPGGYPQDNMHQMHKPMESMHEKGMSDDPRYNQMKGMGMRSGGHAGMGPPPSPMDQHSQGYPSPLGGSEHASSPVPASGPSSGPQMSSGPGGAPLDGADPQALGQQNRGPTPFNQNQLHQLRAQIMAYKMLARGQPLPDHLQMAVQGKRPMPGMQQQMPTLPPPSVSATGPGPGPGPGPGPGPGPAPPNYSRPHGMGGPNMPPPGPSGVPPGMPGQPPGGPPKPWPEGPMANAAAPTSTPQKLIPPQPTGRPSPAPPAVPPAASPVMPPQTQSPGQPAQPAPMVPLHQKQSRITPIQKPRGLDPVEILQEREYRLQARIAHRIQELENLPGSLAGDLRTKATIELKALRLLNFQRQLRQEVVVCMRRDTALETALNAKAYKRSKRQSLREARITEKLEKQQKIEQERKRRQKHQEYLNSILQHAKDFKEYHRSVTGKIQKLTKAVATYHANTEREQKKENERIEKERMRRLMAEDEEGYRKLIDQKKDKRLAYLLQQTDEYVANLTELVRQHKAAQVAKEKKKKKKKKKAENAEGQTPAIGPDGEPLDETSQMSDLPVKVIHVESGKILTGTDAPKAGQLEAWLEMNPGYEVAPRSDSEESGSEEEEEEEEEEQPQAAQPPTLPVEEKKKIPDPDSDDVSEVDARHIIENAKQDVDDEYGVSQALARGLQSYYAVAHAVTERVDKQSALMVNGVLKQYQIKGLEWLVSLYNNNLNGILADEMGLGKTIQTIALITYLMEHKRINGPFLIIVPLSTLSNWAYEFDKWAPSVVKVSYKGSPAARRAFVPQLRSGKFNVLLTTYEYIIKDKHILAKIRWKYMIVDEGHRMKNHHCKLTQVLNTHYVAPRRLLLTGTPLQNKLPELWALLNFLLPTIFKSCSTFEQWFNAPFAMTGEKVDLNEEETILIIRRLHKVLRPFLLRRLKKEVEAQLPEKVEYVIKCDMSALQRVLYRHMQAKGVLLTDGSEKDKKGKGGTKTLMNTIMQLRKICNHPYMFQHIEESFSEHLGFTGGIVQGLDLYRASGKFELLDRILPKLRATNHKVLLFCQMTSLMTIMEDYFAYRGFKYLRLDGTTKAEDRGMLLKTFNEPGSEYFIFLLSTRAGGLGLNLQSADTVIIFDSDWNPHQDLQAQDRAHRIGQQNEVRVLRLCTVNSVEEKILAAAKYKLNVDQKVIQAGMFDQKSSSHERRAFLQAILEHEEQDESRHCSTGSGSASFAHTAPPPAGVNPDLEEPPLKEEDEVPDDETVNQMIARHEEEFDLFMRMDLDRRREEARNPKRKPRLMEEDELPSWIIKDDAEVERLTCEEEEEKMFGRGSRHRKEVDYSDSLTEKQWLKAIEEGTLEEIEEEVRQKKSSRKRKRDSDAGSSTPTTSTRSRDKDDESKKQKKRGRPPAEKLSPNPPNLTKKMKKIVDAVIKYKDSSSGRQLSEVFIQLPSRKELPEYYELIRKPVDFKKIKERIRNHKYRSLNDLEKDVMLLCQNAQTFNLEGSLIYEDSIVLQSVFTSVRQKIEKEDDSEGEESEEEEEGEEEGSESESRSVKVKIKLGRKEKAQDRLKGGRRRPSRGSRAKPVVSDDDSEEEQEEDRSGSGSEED
T1 sequence (P51531 whole entry): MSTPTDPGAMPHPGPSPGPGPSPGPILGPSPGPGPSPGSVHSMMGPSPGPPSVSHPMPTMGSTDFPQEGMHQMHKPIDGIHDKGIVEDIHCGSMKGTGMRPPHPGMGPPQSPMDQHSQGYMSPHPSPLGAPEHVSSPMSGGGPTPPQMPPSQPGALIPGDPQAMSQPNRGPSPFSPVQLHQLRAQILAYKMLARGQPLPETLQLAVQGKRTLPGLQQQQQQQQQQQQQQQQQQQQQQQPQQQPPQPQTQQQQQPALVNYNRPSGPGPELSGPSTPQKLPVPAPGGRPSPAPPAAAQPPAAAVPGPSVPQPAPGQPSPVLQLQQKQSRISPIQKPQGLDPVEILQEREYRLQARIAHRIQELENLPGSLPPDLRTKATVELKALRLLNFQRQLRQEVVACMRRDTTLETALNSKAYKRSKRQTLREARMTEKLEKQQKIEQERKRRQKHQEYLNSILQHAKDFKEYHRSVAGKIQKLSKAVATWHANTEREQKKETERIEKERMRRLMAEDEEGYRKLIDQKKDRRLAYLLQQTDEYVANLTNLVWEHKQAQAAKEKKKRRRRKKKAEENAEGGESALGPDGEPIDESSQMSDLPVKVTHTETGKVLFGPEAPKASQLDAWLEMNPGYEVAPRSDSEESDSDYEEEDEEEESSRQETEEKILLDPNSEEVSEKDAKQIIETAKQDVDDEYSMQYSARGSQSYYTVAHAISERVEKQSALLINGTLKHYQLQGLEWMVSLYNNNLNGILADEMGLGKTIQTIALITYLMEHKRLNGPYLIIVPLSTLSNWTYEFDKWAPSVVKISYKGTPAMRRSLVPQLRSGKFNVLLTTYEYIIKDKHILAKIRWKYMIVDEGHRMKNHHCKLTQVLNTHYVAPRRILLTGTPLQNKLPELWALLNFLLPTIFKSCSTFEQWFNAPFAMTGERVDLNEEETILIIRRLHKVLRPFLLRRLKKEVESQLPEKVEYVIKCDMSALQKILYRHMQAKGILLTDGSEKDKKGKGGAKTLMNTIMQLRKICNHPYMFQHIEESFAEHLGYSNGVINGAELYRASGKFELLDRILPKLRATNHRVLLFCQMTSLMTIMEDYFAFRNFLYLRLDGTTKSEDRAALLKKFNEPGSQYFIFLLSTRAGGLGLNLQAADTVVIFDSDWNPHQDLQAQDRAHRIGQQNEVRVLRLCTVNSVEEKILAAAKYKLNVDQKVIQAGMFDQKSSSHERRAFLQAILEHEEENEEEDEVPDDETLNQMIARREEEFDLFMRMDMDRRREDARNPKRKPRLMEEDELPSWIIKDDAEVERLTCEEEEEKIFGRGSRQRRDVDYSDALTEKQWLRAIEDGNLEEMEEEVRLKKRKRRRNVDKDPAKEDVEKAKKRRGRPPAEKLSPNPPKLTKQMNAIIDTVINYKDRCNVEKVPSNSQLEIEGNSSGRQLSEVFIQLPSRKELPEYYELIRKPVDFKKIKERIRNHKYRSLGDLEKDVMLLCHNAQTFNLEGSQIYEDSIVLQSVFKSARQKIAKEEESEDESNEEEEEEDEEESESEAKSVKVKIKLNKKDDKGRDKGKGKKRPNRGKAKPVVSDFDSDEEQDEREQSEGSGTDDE

SMILES	EC50 (VCaP cells) [nM]	Percent degradation SMARCA2 (SMARCA2) [%]	Percent SMARCA4 degradation at 0.1 µM (SMARCA4) [%]
Cc1ncsc1-c1ccc([C@H](C)NC(=O)[C@@H]2C[C@@H](O)CN2C(=O)[C@@H](NC(=O)CCCCOc2ccc(-c3cc(-c4ccccc4O)nnc3N)cc2)C(C)(C)C)cc1 [Compound 58, (2S,4R)-1-((S)-2-(5-(4-(3-amino-6-(2-hydroxyphenyl)pyridazin-4-yl)phenoxy)pentanamido)-3,3-dimethylbutanoyl)-4-hydroxy-N—((S)-1-(4-(4-methylthiazol-5-yl)phenyl)ethyl)pyrrolidine-2-carboxamide]	10 to 100	99	90
Cc1ncsc1-c1ccc([C@H](C)NC(=O)[C@@H]2C[C@@H](O)CN2C(=O)[C@@H](NC(=O)CN2CC(c3ccc(-c4cc(-c5ccccc5O)nnc4N)cc3)C2)C(C)(C)C)cc1 [Compound 52, (2S,4R)-1-((S)-2-(2-(3-(4-(3-amino-6-(2-hydroxyphenyl)pyridazin-4-yl)phenyl)azetidin-1-yl)acetamido)-3,3-dimethylbutanoyl)-4-hydroxy-N-((S)-1-(4-(4-methylthiazol-5-yl)phenyl)ethyl)pyrrolidine-2-carboxamide]	> 100	97	70
Cc1ncsc1-c1ccc([C@H](C)NC(=O)[C@@H]2C[C@@H](O)CN2C(=O)[C@@H](NC(=O)C(C)N2CCC(c3ccc(-c4cc(-c5ccccc5O)nnc4N)cc3)CC2)C(C)(C)C)cc1 (mixture of isomers) [Compound 32, (2S,4R)-1-((2S)-2-(2-(4-(4-(3-amino-6-(2-hydroxyphenyl)pyridazin-4-yl)phenyl)piperidin-1-yl)propanamido)-3,3-dimethylbutanoyl)-4-hydroxy-N-((S)-1-(4-(4-methylthiazol-5-yl)phenyl)ethyl)pyrrolidine-2-carboxamide]	> 100	90	0
Cc1ncsc1-c1ccc([C@H](C)NC(=O)[C@@H]2C[C@@H](O)CN2C(=O)[C@@H](NC(=O)CN2CCC(c3ccc(-c4cc(-c5cc(F)ccc5O)nnc4N)cc3)CC2)C(C)(C)C)cc1 [Compound 31, (2S,4R)-1-((S)-2-(2-(4-(4-(3-amino-6-(5-fluoro-2-hydroxyphenyl)pyridazin-4-yl)phenyl)piperidin-1-yl)acetamido)-3,3-dimethylbutanoyl)-4-hydroxy-N-((S)-1-(4-(4-methylthiazol-5-yl)phenyl)ethyl)pyrrolidine-2-carboxamide]	10 to 100	99	90
Cc1ncsc1-c1ccc([C@H](C)NC(=O)[C@@H]2C[C@@H](O)CN2C(=O)[C@@H](NC(=O)CN2CCN(c3ccc(-c4cc(-c5ccccc5O)nnc4N)cc3)CC2)C(C)(C)C)cc1 [Compound 12, (2S,4R)-1-((S)-2-(2-(4-(4-(3-amino-6-(2-hydroxyphenyl)pyridazin-4-yl)phenyl)piperazin-1-yl)acetamido)-3,3-dimethylbutanoyl)-4-hydroxy-N—((S)-1-(4-(4-methylthiazol-5-yl)phenyl)ethyl)pyrrolidine-2-carboxamide]	< 10	98	54
